Results as given in patent US9731001B2, “Three-dimensional cavities of dendritic cell immunoreceptor (DCIR), compounds binding thereto and therapeutic applications related to inhibition of human immunodeficiency virus type-1 (HIV-1)” (priority 2011, dated 2017).

Legend:
[1] = system: HIV-1 (NL4-3); experiment: HIV-1 binding/entry on H2O2-treated (apoptotic) CD4TL (p24); type: cell-based; settings: CD4TL treated with 30 μM H2O2 16 h; NL4-3 1 h; FIG. 8 panel A
Procedure: FIGS. 8A and 8B are bar graphs showing the impact of DCIR inhibitors on HIV-1 transmission by apoptotic CD4^+ T cells. Target CD4^+ T cells (1×10^6) were treated for 16 h with H2O2 (30 μM) to induce the surface expression of DCIR. Cells were treated with site A inhibitors (1 and 4) or site B inhibitors (1 and 2) or vehicle (DMSO). Panel A: Cells were next exposed to NL4-3 (100 ng/ml of p24) for 1 h at 37° C., extensively washed to remove unadsorbed virions before assessing p24 content. Panel B: Cells were first incubated with NL4-3 (100 ng/ml of p24) for 2 h at 37° C., washed extensively to remove unadsorbed virions and cultured in complete RPMI-1640 supplemented with rhIL-2 for the time indicated. Cell-free supernatants were then collected and assayed for p24 content. Data shown correspond to the means±sem of 3 independent experiments performed in triplicate for panel A and the means±SEM of 2 independent experiments for panel B. The asterisks denotes statistically significant data (*, P<0.05; **, P<0.01; ***, P<0.001).
Apoptosis was induced in CD4TL activated with 30 μM H2O2 for 16 h before performing the following experimental procedures. To assay binding/entry, cells (1×10^6) were incubated for 60 min at 37° C. with NL4-3 (100 ng of p24). After three extensive washes with PBS to remove un-adsorbed virus, HIV-1 binding was quantified by estimating p24 content. […]

[2] = system: HIV-1 (NL4-3BalEnv); experiment: HIV replication in polarized Th17 CD4T cells (p24); type: cell-based; settings: 10 μM, 3, 7 and 10 days of incubation
Procedure: (§1) FIGS. 13A and 13B are a bar graphs showing impact of the DCIR-EPS inhibitor (Cpd B2) on HIV replication by activated Th17 polarized CD4T cells, according to Example 8. Polarized CD4 Th17 cells (FIG. 13A) and PHA/IL-2 activated CD4T cells (FIG. 13B) were either untreated or treated with 10 μM of DCIR-EPS inhibitor (Cpd B2) for 10 min at 37° C. Cells were then exposed to NL4-3BalEnv for 2 hrs. After three washes with PBS to remove non-adsorbed virus, cells were cultured during 10 days. Viral replication was quantified by measuring the HIV-p24 content in culture supernatants. Data represent means±SD of triplicate samples from the same patient. Asterisks denote statistically significant differences (**, P<0.01), (*, P<0.05).
(§2) It was assessed whether the DCIR inhibitor (Compound B2) could reduce viral production. Polarized Th17 CD4T cells (FIG. 13A) and PHA/IL-2 activated CD4T cells (FIG. 13B) were pretreated or not with DCIR inhibitor (Cpd B2) before being put into contact with NL4-3BalEnv. Cells were washed and incubated for 10 days and then p24 content was measured. […] Prevention of Th17 infection could be contributed to maintain an adequate intestinal homeostasis.

[3] = system: HIV-1 (NL4-3BalEnv); experiment: HIV replication in PHA/IL-2 activated CD4T cells (p24); type: cell-based; settings: 10 μM
Procedure: as §1, §2

[4] = system: Polarized CD4 Th17 cells; experiment: Toxicity by MTT assay, polarized CD4 Th17 cells; type: cell-based, human; settings: Th17 CD4T cells; 10 uM; 10 days
Procedure: (§3) FIGS. 14A-14F are a bar graphs showing the impact of the DCIR-EPS inhibitor (Cpd B2) on viability and apoptosis of TH17 polarized CD4 T cells or PHA-L/activated CD4T cells according to Example 8. Polarized CD4 TH17 cells (left panels) or PHA-L/IL-2 activated CD4 T cells (right panels) were either untreated or treated with 10 μM of DCIR-EPS inhibitor for 10 min at 37° C. Cells were then contacted with NL4-3BalEnv for 2 hrs and washed three times with PBS to remove non-adsorbed virus. Cells were then incubated for 10 days and toxicity was measured using the MTT assay (upper panels). In parallel, cells were incubated for 24 hrs and stained with Z-Vad-FMK FITC Abs to measure apoptosis) (middle panels) or with DCIR Abs lower panels).
(§4) After observing the inhibition of p24 content in Th17 cells by the DCIR inhibitor (Cpd B2), the impact of the DCIR inhibitor on cell viability and apoptosis was determined (FIG. 14). Polarized CD4 Th17 cells (FIG. 14A, 14C, 14E) or PHA-L/IL-2 CD4T cells (FIGS. 14B, 14D, 14F) were either untreated (DMSO) or treated with 10 uM of DCIR inhibitor for 10 minutes at 37° C. and then incubated with NL4-3BalEnv or mock virus for 2 hours. […] DCIR expression on Th17 CD4 T cells and PHA-L/IL-2 activated CD4 T cells was measured with or without treatment with the DCIR inhibitor (FIGS. 14E, 14F). […]

[5] = system: PHA-L/IL-2 activated CD4 T cells; experiment: Toxicity by MTT assay, PHA-L/IL-2 activated CD4 T cells; type: cell-based, human; settings: 10 uM, 10 days
Procedure: as §3, §4

[6] = system: Th17 CD4 T cells; experiment: Apoptosis (Z-Vad-FMK FITC), Th17 CD4 T cells; type: cell-based, human; settings: 10 uM, 24 hrs
Procedure: as §3, §4

[7] = system: PHA-L/IL-2 CD4 T cells; experiment: Apoptosis (Z-Vad-FMK FITC), PHA-L/IL-2 CD4 T cells; type: cell-based, human; settings: 10 uM, 24 hrs
Procedure: as §3, §4

[8] = system: DCIR; experiment: DCIR expression on Th17 CD4 T cells; type: cell-based, human; settings: 10 uM
Procedure: as §3, §4

[9] = system: DCIR; experiment: DCIR expression on PHA-L/IL-2 activated CD4 T cells; type: cell-based, human; settings: 10 uM
Procedure: as §3, §4

SMILES	decrease of HIV-1 attachment to H2O2 treated cells [1]	p24 content [2]	p24 content ([3]; after 3 and 7 days)	p24 content ([3]; after 10 days)	toxic effect (MTT assay) [4]	toxic effect (MTT assay) [5]	apoptosis [6]	apoptosis [7]	DCIR expression [8]	DCIR expression [9]
O=C(/C=C/C=C/c1ccccc1)c1ccccc1 [Compound A1, 1,5-diphenyl-2,4-pentadien-1-one]	about 50%	–	–	–	–	–	–	–	–	–
O=C(c1ccccc1)c1cc2ccccc2o1 [Compound B1, 1-benzofuran-2-yl(phenyl)methanone]	~40%	–	–	–	–	–	–	–	–	–
Cc1ccc(/N=[N+](\[O-])c2ccc(C)cc2)cc1 [Compound B2, 1-methyl-4-[(4-methylphenyl)-NNO-azoxy]benzene]	–	significantly reduced p24 content	non-significant trend for reduction	significant reduction	did not have a toxic effect	did not have a toxic effect	did not have any impact on apoptosis	underwent less apoptosis	no difference in DCIR expression	marked reduction in DCIR expression
